Data: PMC8165744, “Identification of an Alternative Glycyrrhizin Metabolite Causing Liquorice-Induced Pseudohyperaldosteronism and the Development of ELISA System to Detect the Predictive Biomarker” (Frontiers in Pharmacology, 2021)
Like-named read-outs stand apart in the source and are kept apart here.

Legend:
[1] = pharmacokinetics of GA metabolites in EHBRs orally treated with GA; assay type: in vivo, Eisai hyperbilirubinuria rats (EHBRs); conditions: Eisai hyperbilirubinuria rat (EHBR), rat, plasma, 200 mg/kg, GA 0.20 g/kg oral, read-out: plasma concentration 12 h after oral administration of GA
Protocol: Pharmacokinetic Experiments of GA Metabolites in EHBRs Orally Treated With GA
Male and female EHBRs (9 week-old) were anaesthetized by an intraperitoneal injection of urethane (1 g/kg) and their jugular veins were exposed. GA suspended in 0.5% carboxymethylcellulose was then administered orally (200 mg/kg) to the unconscious rats, and blood samples were collected from the jugular vein while urine samples were collected using a metabolic cage at appropriate times over a 12 h period.
LC-MS/MS Analysis for GA Metabolites
(§1) Briefly, after diluting serum and urine samples with water to obtain suitable concentrations, they were digested with subtilisin (0.91 U/ml), followed by the addition of astragaloside IV (used as an internal standard; Fujifilm Wako Pure Chemicals, Osaka, Japan), and deproteinized using 80% ethanol. […] The transitions (precursor to daughter) monitored and retention times were as follows: ESI(+), 743.4 to 567.5 m/z (35 and 25 V for cone voltage and collision energy, respectively) for compound 1 (8.1 min); ESI(–), 565.5 to 96.5 m/z (80 and 60 V) for 2 (9.6 min); ESI(–), 549.5 to 96.5 m/z (80 and 60 V) for 3 (15.4 min); ESI(+), 727.3 to 551.2 m/z (30 and 25 V) for 4 (11.3 min); ESI(+), 647.6 to 453.6 m/z (40 and 20 V) for 3MGA (15.0 min); ESI(+), 471.3 to 91.0 m/z (40 and 20 V) for GA (13.4 min); ESI(+), 823.5 to 453.6 m/z (30 and 20 V) for GL (18.4 min); and ESI(+), 785.4 to 143.0 m/z (30 and 20 V) for astragaloside IV (3.0 min). Linear regressions over the concentration range of 2 nM to 2 µM for each compound were examined using the peak-area ratio of the compounds to their internal standards and the least-squares method (r ^ 2 > 0.98). The detection limits for 1, GL, and GA were 6.4 nM, and those for 2, 3, and 4, and 3MGA were 3.2 nM.
FIGURE 5 Pharmacokinetic profiles of glycyrrhizin (GL) metabolites in female (A–C) and male (D–F) Eisai hyperbilirubinuria rats (EHBRs). […] Data of GA, 3MGA, 1, 2, and 3 in (A) and GA, 3MGA, 2, and 3 for (D) are relatively small; their magnified graphs are shown in (B,E), respectively. Concentrations of GA metabolites were measured using liquid chromatography-tandem mass spectrometry (LC-MS/MS), and data are means ± standard error (S.E: n = 4).

[2] = measurement of GL metabolites in human serum and urine samples (LC-MS/MS); assay type: in vivo
Protocol: Measurement of Compound 4 in Human Serum Samples
Human serum samples (100 µl) were pre-treated as described in the protocol reported in our previous study ([Takahashi et al., 2019]), and the concentration of 4 was measured using LC-tandem mass spectrometry (MS/MS) as described below. This study was conducted with the approval of the appropriate ethics committee at Keio University, Chiba University, Kanazawa University, and Kameda Medical Center.
as §1

concentration at 12 h ([1]; female EHBRs): 208 µM
concentration at 12 h ([1]; male EHBRs): 237 µM
serum concentration of 4 relative to that of 3 (fold lower) ([2]; human serum, patients with suspected pseudohyperaldosteronism): approximately 10 fold
concentration in urine ([2]; human, one urine sample among 20 available samples): 0.003 µM
number of serum samples in which compound was detected ([2]; of 70 participants taking liquorice-containing herbal preparations): 62 samples
Structure (SMILES): CC1(C)[C@@H](OS(=O)(=O)O)CC[C@]2(C)[C@H]3C(=O)C=C4[C@@H]5C[C@@](C)(C(=O)O[C@@H]6O[C@H](C(=O)O)[C@@H](O)[C@H](O)[C@H]6O)CC[C@]5(C)CC[C@@]4(C)[C@]3(C)CC[C@@H]12 [Compound 4, 18β-glycyrrhetyl-3-O-sulfate-30-O-glucuronide]
